Reference: US10821115B2, “Compounds that inhibit Mcl-1 protein” (priority 2017, dated 2020)
pIC50: −log10 of the molar value. Read-outs that look alike come from different tables or passages of the source.

What was measured:
[1] = tested on: human multiple myeloma cell line, OPM-2; assay: Cell viability assay (OPM-2 10 FBS), CellTiter-Glo; format: cell-based
How it was run: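 3000 cells/well, RPMI 1640 + 10% FBS; serial compound dilutions, 16 h, 37 °C/5% CO2.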

[2] = biological target: recombinant human Mcl-1 (residues 171-327) / Bim interaction (Homo sapiens (Human), UniProt Q07820); assay: biochemical; format: binding; settings: read-out: Mcl-1 HTRF IC50
[3] = Homo sapiens, OPM-2, 16 h, read-out: OPM-2 10% FBS IC50 IP, OPM-2 cells, 10% FBS, 16 h, CellTiter-Glo
[4] = TR-FRET, Mcl-1(171-327) / biotin-Bim (51-76)
[5] = read-out: OPM-2 10% FBS IC50 IP, OPM-2 cells, 10% FBS, 16 h, CellTiter-Glo

Chain of recombinant human Mcl-1 (residues 171-327) / Bim interaction (Q07820 171-327): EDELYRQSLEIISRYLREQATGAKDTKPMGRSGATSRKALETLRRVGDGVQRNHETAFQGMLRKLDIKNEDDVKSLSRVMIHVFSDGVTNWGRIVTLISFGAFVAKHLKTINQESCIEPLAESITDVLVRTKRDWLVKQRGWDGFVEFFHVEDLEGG

| Structure (SMILES) | pIC50 [1, 3] | pIC50 [2, 4] | pIC50 [1, 5] | pIC50 [2] |
| --- | --- | --- | --- | --- |
| C[C@@H]1[C@@H](C)C/C=C/[C@](O)(c2c[nH]nn2)[C@@H]2CC[C@H]2CN2C[C@@]3(CCCc4cc(Cl)ccc43)COc3ccc(cc32)C(=O)NS1(=O)=O [Example 100239, (1S,3′R,6′R,7′R,8′E,11′S,12′R)-6-chloro-7′-hydroxy-11′,12′-dimethyl-7′-(1H-1,2,3-triazol-4-yl)-3,4-dihydro-2H,15′H-spiro[naphthalene-1,22′-[20]oxa[13]thia[1,14]diazatetracyclo [14.7.2.0~3,6~.0~19,24~]pentacosa[8,16,18,24]tetraen]-15′-one 13′,13′-dioxide] | 5.43 | 9.48 | – | – |
| C[C@@H]1[C@@H](C)C/C=C/[C@@](O)(Cc2ccccn2)[C@@H]2CC[C@H]2CN2C[C@@]3(CCCc4cc(Cl)ccc43)COc3ccc(cc32)C(=O)NS1(=O)=O [Example 100241, (1S,3′R,6′R,7′S,8′E,11′S,12′R)-6-chloro-7′-hydroxy-11′,12′-dimethyl-7′-(2-pyridinylmethyl)-3,4-dihydro-2H,15′H-spiro[naphthalene-1,22′-[20]oxa[13]thia[1,14]diazatetracyclo [14.7.2.0~3,6~.0~19,24~]pentacosa[8,16,18,24]tetraen]-15′-one 13′,13′-dioxide] | – | 9.44 | 6.40 | – |
| C[C@@H]1[C@@H](C)C/C=C/[C@@](O)(Cc2ccccn2)[C@@H]2CC[C@H]2CN2C[C@@]3(CCCc4cc(Cl)ccc43)COc3ccc(cc32)C(=O)NS1(=O)=O [Example 100242, (1S,3′R,6′R,7′S,8′E,11′S,12′R)-6-chloro-7′-hydroxy-11′,12′-dimethyl-7′-(2-pyridinylmethyl)-3,4-dihydro-2H,15′H-spiro[naphthalene-1,22′-[20]oxa[13]thia[1,14]diazatetracyclo [14.7.2.0~3,6~.0~19,24~]pentacosa[8,16,18,24]tetraen]-15′-one 13′,13′-dioxide] | – | 8.67 | 5.84 | – |
| C#C[C@]1(O)/C=C/C[C@H](C)[C@@H](C)S(=O)(=O)NC(=O)c2ccc3c(c2)N(C[C@@H]2CC[C@H]21)C[C@@]1(CCCc2cc(Cl)ccc21)CO3 [Example 100244, (1S,3′R,6′R,7′S,8′E,11′S,12′R)-6-chloro-7′-ethynyl-7′-hydroxy-11′,12′-dimethyl-3,4-dihydro-2H,15′H-spiro[naphthalene-1,22′-[20]oxa[13]thia[1,14]diazatetracyclo [14.7.2.0~3,6~.0~19,24~]pentacosa[8,16,18,24]tetraen]-15′-one 13′,13′-dioxide] | 7.31 | 9.74 | – | – |
| C[C@@H]1[C@@H](C)C/C=C/[C@](O)(Cc2nccs2)[C@@H]2CC[C@H]2CN2C[C@@]3(CCCc4cc(Cl)ccc43)COc3ccc(cc32)C(=O)NS1(=O)=O [Example 100245, (1S,3′R,6′R,7′R,8′E,11′S,12′R)-6-chloro-7′-hydroxy-11′,12′-dimethyl-7′-(1,3-thiazol-2-ylmethyl)-3,4-dihydro-2H,15′H-spiro[naphthalene-1,22′-[20]oxa[13]thia[1,14]diazatetracyclo [14.7.2.0~3,6~.0~19,24~]pentacosa[8,16,18,24]tetraen]-15′-one 13′,13′-dioxide] | – | – | 5.70 | 8.77 |
| C[C@@H]1[C@@H](C)C/C=C/[C@](O)(Cc2nccs2)[C@@H]2CC[C@H]2CN2C[C@@]3(CCCc4cc(Cl)ccc43)COc3ccc(cc32)C(=O)NS1(=O)=O [Example 100246, (1S,3′R,6′R,7′R,8′E,11′S,12′R)-6-chloro-7′-hydroxy-11′,12′-dimethyl-7′-(1,3-thiazol-2-ylmethyl)-3,4-dihydro-2H,15′H-spiro[naphthalene-1,22′-[20]oxa[13]thia[1,14]diazatetracyclo [14.7.2.0~3,6~.0~19,24~]pentacosa[8,16,18,24]tetraen]-15′-one 13′,13′-dioxide] | – | – | 6.94 | 9.49 |
| C[C@@H]1[C@@H](C)C/C=C/[C@@](O)(CC(=O)N(C)c2ccccc2)[C@@H]2CC[C@H]2CN2C[C@@]3(CCCc4cc(Cl)ccc43)COc3ccc(cc32)C(=O)NS1(=O)=O [Example 100247, 2-((1S,3′R,6′R,7′S,8′E,11′S,12′R)-6-chloro-7′-hydroxy-11′,12′-dimethyl-13′,13′-dioxido-15′-oxo-3,4-dihydro-2H-spiro[naphthalene-1,22′-[20]oxa[13]thia[1,14]diazatetracyclo [14.7.2.0~3,6~.0~19,24~]pentacosa[8,16,18,24]tetraen]-7′-yl)-N-methyl-N-phenylacetamide] | 6.20 | 9.27 | – | – |
| CO[C@@]1(C2SCCCS2)CCC[C@H](C)[C@@H](C)S(=O)(=O)NC(=O)c2ccc3c(c2)N(C[C@@H]2CC[C@H]21)C[C@@]1(CCCc2cc(Cl)ccc21)CO3 [Example 100249, (1S,3′R,6′R,7′S,11′S,12′R)-6-chloro-7′-(1,3-dithian-2-yl)-7′-methoxy-11′,12′-dimethyl-3,4-dihydro-2H,15′H-spiro[naphthalene-1,22′-[20]oxa[13]thia[1,14]diazatetracyclo [14.7.2.0~3,6~.0~19,24~]pentacosa[16,18,24]trien]-15′-one 13′,13′-dioxide] | 5.64 | 8.52 | – | – |
| C[C@@H]1[C@@H](C)C/C=C/[C@@](O)(CC(=O)N2CCCC2)[C@@H]2CC[C@H]2CN2C[C@@]3(CCCc4cc(Cl)ccc43)COc3ccc(cc32)C(=O)NS1(=O)=O [Example 100252, (1S,3′R,6′R,7′S,8′E,11′S,12′R)-6-chloro-7′-hydroxy-11′,12′-dimethyl-7′-(2-oxo-2-(1-pyrrolidinyl)ethyl)-3,4-dihydro-2H,15′H-spiro[naphthalene-1,22′-[20]oxa[13]thia[1,14]diazatetracyclo [14.7.2.0~3,6~.0~19,24~]pentacosa[8,16,18,24]tetraen]-15′-one 13′,13′-dioxide] | – | 9.95 | 7.11 | – |
| C[C@@H]1[C@@H](C)C/C=C/[C@@](O)(CC(=O)N2CCCC2)[C@@H]2CC[C@H]2CN2C[C@@]3(CCCc4cc(Cl)ccc43)COc3ccc(cc32)C(=O)NS1(=O)=O [Example 100253, (1S,3′R,6′R,7′S,8′E,11′S,12′R)-6-chloro-7′-hydroxy-11′,12′-dimethyl-7′-(2-oxo-2-(1-pyrrolidinyl)ethyl)-3,4-dihydro-2H,15′H-spiro[naphthalene-1,22′-[20]oxa[13]thia[1,14]diazatetracyclo [14.7.2.0~3,6~.0~19,24~]pentacosa[8,16,18,24]tetraen]-15′-one 13′,13′-dioxide] | – | 9.83 | 6.26 | – |
| CO[C@@]1(C2SCCCS2)CCC[C@H](C)[C@@H](C)S(=O)(=O)NC(=O)c2ccc3c(c2)N(C[C@@H]2CC[C@H]21)C[C@@]1(CCCc2cc(Cl)ccc21)CO3 [Example 100254, (1S,3′R,6′R,7′S,11′S,12′R)-6-chloro-7′-(1,3-dithian-2-yl)-7′-methoxy-11′,12′-dimethyl-3,4-dihydro-2H,15′H-spiro[naphthalene-1,22′-[20]oxa[13]thia[1,14]diazatetracyclo [14.7.2.0~3,6~.0~19,24~]pentacosa[16,18,24]trien]-15′-one 13′,13′-dioxide] | – | 8.39 | 5.67 | – |
| C[C@@H]1[C@@H](C)CCC[C@](C#N)(NC(=O)c2ccccc2)[C@@H]2CC[C@H]2CN2C[C@@]3(CCCc4cc(Cl)ccc43)COc3ccc(cc32)C(=O)NS1(=O)=O [Example 100255, N-((1S,3′R,6′R,7′S,11′S,12′R)-6-chloro-7′-cyano-11′,12′-dimethyl-13′,13′-dioxido-15′-oxo-3,4-dihydro-2H-spiro[naphthalene-1,22′-[20]oxa[13]thia[1,14]diazatetracyclo [14.7.2.0~3,6~.0~19,24~]pentacosa[16,18,24]trien]-7′-yl)benzamide] | 5.30 | 7.84 | – | – |
| C[C@@H]1[C@@H](C)CCC[C@](CO)(NC(=O)c2ccccc2)[C@@H]2CC[C@H]2CN2C[C@@]3(CCCc4cc(Cl)ccc43)COc3ccc(cc32)C(=O)NS1(=O)=O [Example 100256, N-((1S,3′R,6′R,7′S,11′S,12′R)-6-chloro-7′-(hydroxymethyl)-11′,12′-dimethyl-13′,13′-dioxido-15′-oxo-3,4-dihydro-2H-spiro[naphthalene-1,22′-[20]oxa[13]thia[1,14]diazatetracyclo [14.7.2.0~3,6~.0~19,24~]pentacosa[16,18,24]trien]-7′-yl)benzamide] | 5.92 | 8.30 | – | – |
| C[C@@H]1[C@@H](C)C/C=C/[C@@](O)(CC(=O)N2CCCCC2)[C@@H]2CC[C@H]2CN2C[C@@]3(CCCc4cc(Cl)ccc43)COc3ccc(cc32)C(=O)NS1(=O)=O [Example 100257, (1S,3′R,6′R,7′S,8′E,11′S,12′R)-6-chloro-7′-hydroxy-11′,12′-dimethyl-7′-(2-oxo-2-(1-piperidinyl)ethyl)-3,4-dihydro-2H,15′H-spiro[naphthalene-1,22′-[20]oxa[13]thia[1,14]diazatetracyclo [14.7.2.0~3,6~.0~19,24~]pentacosa[8,16,18,24]tetraen]-15′-one 13′,13′-dioxide] | – | 9.74 | 7.10 | – |
| C[C@@H]1[C@@H](C)C/C=C/[C@@](O)(CC(=O)N2CCCCC2)[C@@H]2CC[C@H]2CN2C[C@@]3(CCCc4cc(Cl)ccc43)COc3ccc(cc32)C(=O)NS1(=O)=O [Example 100258, (1S,3′R,6′R,7′S,8′E,11′S,12′R)-6-chloro-7′-hydroxy-11′,12′-dimethyl-7′-(2-oxo-2-(1-piperidinyl)ethyl)-3,4-dihydro-2H,15′H-spiro[naphthalene-1,22′-[20]oxa[13]thia[1,14]diazatetracyclo [14.7.2.0~3,6~.0~19,24~]pentacosa[8,16,18,24]tetraen]-15′-one 13′,13′-dioxide] | – | 9.26 | 6.28 | – |
